Converted amounts (≈) assume the structure as drawn.
What was measured:
[1] = tested on: Mannheimia haemolytica; assay: MIC by broth-microdilution method (CLSI VET01-A4), Mannheimia haemolytica strains; type: cell-based; settings: for MIC MH 6357: Mannheimia haemolytica MH 6357 (M7/2), reference strain (cattle infection strain); for MIC MH 6374: Mannheimia haemolytica MH 6374 (ATCC 33396), reference strain; for MIC MH 10720: Mannheimia haemolytica MH 10720 (154); for MIC MH 10720 / MIC MH 12587 / MIC MH 13093: BRD field isolate; for MIC MH 12587: Mannheimia haemolytica MH 12587 (1071), macrolide-resistance: erm+, E+; for MIC MH 13093: Mannheimia haemolytica MH 13093 (XB0472-6014.1)
Description: (§1) For example, representative compounds were tested against Mannheimia haemolytica and Pasteurella multocida, using the conventional broth-dilution assay.
(§2) The Minimum inhibitory concentrations (MIC) of compounds according to the invention for a number of veterinary bacterial pathogens were determined by the broth-microdilution method according to CLSI document VET01-A4.
(§3) Microdilution trays containing a doubling dilution series of the test compound were used for the tests. The MIC results were interpreted according to the CLSI documents VET01-S3. The lowest concentration of compound at which no visible growth (i.e. no turbidity) detected by the unaided eye was recorded as the MIC.

[2] = tested on: Pasteurella multocida; assay: MIC by broth-microdilution method (CLSI VET01-A4), Pasteurella multocida strains; type: cell-based; settings: for MIC PM 6267: Pasteurella multocida PM 6267 (P 2225 (L386)), reference strain (mouse infection strain); for MIC PM 6391: Pasteurella multocida PM 6391 (ATCC 43137), reference strain; for MIC PM 10775: Pasteurella multocida PM 10775 (080130003051); for MIC PM 10775 / MIC PM 12080: BRD field isolate; for MIC PM 12080: Pasteurella multocida PM 12080 (IV102277-0093)
Description: as §1, §2, §3

| Structure (SMILES) | MIC MH 6357 [1] | MIC MH 6374 [1] | MIC MH 10720 [1] | MIC MH 12587 [1] | MIC MH 13093 [1] | MIC PM 6267 [2] | MIC PM 6391 [2] | MIC PM 10775 [2] | MIC PM 12080 [2] |
| --- | --- | --- | --- | --- | --- | --- | --- | --- | --- |
| C[C@@H](O)[C@H](Nc1ncnc2cc(C#Cc3ccc(CNC4CC4)cc3)ccc12)C(=O)NO [Compound 2] | 0.8 µM (≈ 0.345 µg/mL) | 1.6 µM (≈ 0.69 µg/mL) | ≤0.1 µM | 3.1 µM (≈ 1.34 µg/mL) | 3.1 µM (≈ 1.34 µg/mL) | 1.6 µM (≈ 0.69 µg/mL) | 0.2 µM (≈ 0.0863 µg/mL) | ≤0.1 µM | ≤0.1 µM |
| COCCNCc1ccc(C#Cc2ccc3c(NC(C(=O)NO)C(C)(C)N)ncnc3c2)cc1 (racemic) [Compound 18] | 25 µM (≈ 11.6 µg/mL) | 25 µM (≈ 11.6 µg/mL) | 6.3 µM (≈ 2.91 µg/mL) | 50 µM (≈ 23.1 µg/mL) | 25 µM (≈ 11.6 µg/mL) | 3.1 µM (≈ 1.43 µg/mL) | 6.3 µM (≈ 2.91 µg/mL) | 0.8 µM (≈ 0.37 µg/mL) | 12.5 µM (≈ 5.78 µg/mL) |
| C[C@@H](O)[C@H](Nc1ncnc2cc(C#Cc3ccc(CNCC(F)(F)F)cc3)ccc12)C(=O)NO [Compound 6] | 0.8 µM (≈ 0.379 µg/mL) | 0.8 µM (≈ 0.379 µg/mL) | 0.4 µM (≈ 0.189 µg/mL) | 1.6 µM (≈ 0.758 µg/mL) | 0.8 µM (≈ 0.379 µg/mL) | ≤0.1 µM | ≤0.1 µM | ≤0.1 µM | 0.4 µM (≈ 0.189 µg/mL) |
| C[C@@H](O)[C@H](Nc1nsc2cc(C#Cc3ccc(CNCc4ccccc4)cc3)ccc12)C(=O)NO [Compound 14] | 0.8 µM (≈ 0.389 µg/mL) | 0.8 µM (≈ 0.389 µg/mL) | ≤0.1 µM | 1.6 µM (≈ 0.779 µg/mL) | 0.8 µM (≈ 0.389 µg/mL) | ≤0.1 µM | 100 µM (≈ 48.7 µg/mL) | ≤0.1 µM | 0.2 µM (≈ 0.0973 µg/mL) |
| COCCNCc1ccc(C#Cc2ccc3c(N[C@H](C(=O)NO)[C@@H](C)O)nsc3c2)cc1 [Compound 12] | 0.8 µM (≈ 0.364 µg/mL) | 0.8 µM (≈ 0.364 µg/mL) | 0.2 µM (≈ 0.0909 µg/mL) | 3.1 µM (≈ 1.41 µg/mL) | 1.6 µM (≈ 0.727 µg/mL) | ≤0.1 µM | >100 µM | ≤0.1 µM | 0.8 µM (≈ 0.364 µg/mL) |
| COCCNCc1ccc(C#Cc2ccc3c(N[C@H](C(=O)NO)[C@@H](C)O)ncnc3c2)cc1 [Compound 3] | 6.3 µM (≈ 2.83 µg/mL) | 6.3 µM (≈ 2.83 µg/mL) | 6.3 µM (≈ 2.83 µg/mL) | 12.5 µM (≈ 5.62 µg/mL) | 6.3 µM (≈ 2.83 µg/mL) | 0.2 µM (≈ 0.0899 µg/mL) | 0.4 µM (≈ 0.18 µg/mL) | ≤0.1 µM | 3.1 µM (≈ 1.39 µg/mL) |
| C[C@@H](O)[C@H](Nc1nsc2cc(C#Cc3ccc(CNC4CC4)cc3)ccc12)C(=O)NO [Compound 10] | 0.2 µM (≈ 0.0873 µg/mL) | 0.4 µM (≈ 0.175 µg/mL) | ≤0.1 µM | 0.8 µM (≈ 0.349 µg/mL) | 0.4 µM (≈ 0.175 µg/mL) | ≤0.1 µM | >100 µM | ≤0.1 µM | ≤0.1 µM |
| C[C@@H](O)[C@H](Nc1ncnc2cc(C#Cc3ccc(CN4CCOCC4)cc3)ccc12)C(=O)NO [Compound 1] | 1.6 µM (≈ 0.738 µg/mL) | 3.1 µM (≈ 1.43 µg/mL) | 0.2 µM (≈ 0.0923 µg/mL) | 3.1 µM (≈ 1.43 µg/mL) | 3.1 µM (≈ 1.43 µg/mL) | 1.6 µM (≈ 0.738 µg/mL) | 0.2 µM (≈ 0.0923 µg/mL) | ≤0.1 µM | ≤0.1 µM |
| C[C@@H](O)[C@H](Nc1nsc2cc(C#Cc3ccc(CNCC(F)(F)F)cc3)ccc12)C(=O)NO [Compound 15] | 1.6 µM (≈ 0.766 µg/mL) | 1.6 µM (≈ 0.766 µg/mL) | ≤0.1 µM | 3.1 µM (≈ 1.48 µg/mL) | 1.6 µM (≈ 0.766 µg/mL) | ≤0.1 µM | >100 µM | ≤0.1 µM | 0.4 µM (≈ 0.191 µg/mL) |
| C[C@@H](O)[C@H](Nc1nsc2cc(C#Cc3ccc(CN4CCOCC4)cc3)ccc12)C(=O)NO [Compound 13] | 3.1 µM (≈ 1.45 µg/mL) | 6.3 µM (≈ 2.94 µg/mL) | 1.6 µM (≈ 0.747 µg/mL) | 6.3 µM (≈ 2.94 µg/mL) | 3.1 µM (≈ 1.45 µg/mL) | ≤0.1 µM | 100 µM (≈ 46.7 µg/mL) | ≤0.1 µM | 1.6 µM (≈ 0.747 µg/mL) |
| C=CCNCc1ccc(C#Cc2ccc3c(N[C@H](C(=O)NO)[C@@H](C)O)nsc3c2)cc1 [Compound 11] | 0.4 µM (≈ 0.175 µg/mL) | 0.4 µM (≈ 0.175 µg/mL) | ≤0.1 µM | 1.6 µM (≈ 0.698 µg/mL) | 0.8 µM (≈ 0.349 µg/mL) | ≤0.1 µM | 0.2 µM (≈ 0.0873 µg/mL) | ≤0.1 µM | 0.4 µM (≈ 0.175 µg/mL) |
| C=CCNCc1ccc(C#Cc2ccc3c(N[C@H](C(=O)NO)[C@@H](C)O)ncnc3c2)cc1 [Compound 4] | 1.6 µM (≈ 0.69 µg/mL) | 3.1 µM (≈ 1.34 µg/mL) | 1.6 µM (≈ 0.69 µg/mL) | 6.3 µM (≈ 2.72 µg/mL) | 3.1 µM (≈ 1.34 µg/mL) | 0.2 µM (≈ 0.0863 µg/mL) | 0.4 µM (≈ 0.173 µg/mL) | ≤0.1 µM | 1.6 µM (≈ 0.69 µg/mL) |
| C[C@@H](O)[C@H](Nc1ncnc2cc(C#Cc3ccc(CNCc4ccccc4)cc3)ccc12)C(=O)NO [Compound 5] | 0.8 µM (≈ 0.385 µg/mL) | 0.8 µM (≈ 0.385 µg/mL) | 0.8 µM (≈ 0.385 µg/mL) | 3.1 µM (≈ 1.49 µg/mL) | 1.6 µM (≈ 0.77 µg/mL) | ≤0.1 µM | 0.2 µM (≈ 0.0963 µg/mL) | ≤0.1 µM | 0.8 µM (≈ 0.385 µg/mL) |

— patent US12227485B2, “Compounds useful for the treatment of infection with Mannheimia haemolytica or Histophilus somni” (Intervet Inc., priority 2018, dated 2025)
